Experimental findings from DBAASP are described below.

Holding throughout (test): ≥ marks a high value that may be exact or a test limit, other limits are often not marked, values filed in µg/mL are converted to µM
Assay [1] has as its system Bacillus subtilis.
Assay [2] concerns Candida albicans ATCC 2002.
The subject of assay [3] is Escherichia coli ATCC 25922.
Assay [4] deals with Staphylococcus aureus ATCC 2592.
The test system of assay [5] is Staphylococcus aureus NCTC 8325.
Assay [6] relates to Salmonella enterica subsp. enterica serovar Typhimurium C77-31.
Assay [7] deals with Escherichia coli UB1005.
Assay [8] relates to Staphylococcus aureus ATCC 25923.
Assay [9] deals with Staphylococcus epidermidis ATCC 12228.
The test system of assay [10] is Staphylococcus aureus ATCC 29213.
In assay [11] the test system is Bacillus subtilis KCTC 3068.
The subject of assay [12] is Staphylococcus aureus KCTC 1621.
For assay [13], the system named is Salmonella typhimurium KCTC 1926.
Assay [14] has as its system Escherichia coli KCTC 1682.
In assay [15] the test system is Pseudomonas aeruginosa KCTC 1637.
Assay [16] deals with Staphylococcus epidermidis KCTC 1917.
Assay [17] has as its system Enterococcus faecalis ATCC 29212.
In assay [18] the test system is Candida albicans ATCC 90028.

Converted amounts (≈) assume the structure as drawn.

Regarding `CC[C@H](C)[C@H](NC(=O)[C@H](C)NC(=O)[C@H](CS)NC(=O)[C@@H](NC(=O)[C@@H](NC(=O)[C@@H](NC(=O)[C@@H]1CCCN1C(=O)[C@@H](NC(=O)[C@@H](NC(=O)[C@@H](NC(=O)[C@H](C)NC(=O)[C@H](Cc1ccccc1)NC(=O)[C@H](CC(C)C)NC(=O)[C@H](CCCN=C(N)N)NC(=O)[C@H](CCCN=C(N)N)NC(=O)[C@H](CC(C)C)NC(=O)CNC(=O)[C@@H]1CCCN1C(=O)[C@@H](NC(=O)[C@@H](N)Cc1ccccc1)[C@@H](C)CC)[C@@H](C)O)C(C)C)C(C)C)[C@@H](C)O)C(C)C)C(C)C)C(=O)N[C@@H](CC(N)=O)C(=O)N[C@@H](CCCCN)C(=O)N[C@@H](CC(C)C)C(=O)N1CCC[C@H]1C(=O)N1CCC[C@H]1C(=O)NCC(=O)O` [FIPGLRRLFATVVPTVVCAINKLPPG], the MIC in assay [1] was determined as 18 µM (≈ 50 µg/mL); in [2] it was 2.27 µM (≈ 6.3 µg/mL); in [3] it was 4.5 µM (≈ 12.5 µg/mL); in assay [4] it was 4.5 µM (≈ 12.5 µg/mL).
For `CC[C@H](C)[C@H](NC(=O)CNC(=O)[C@H](CO)NC(=O)[C@H](CCCN=C(N)N)NC(=O)[C@@H](N)Cc1ccccc1)C(=O)N[C@@H](CC(C)C)C(=O)N[C@@H](CCCCN)C(=O)N[C@@H](CC(C)C)C(=O)N[C@@H](C)C(=O)N[C@@H](CO)C(=O)N[C@@H](CCCCN)C(=O)N[C@H](C(=O)NCC(=O)N[C@@H](CO)C(=O)N[C@H](C(=O)N[C@@H](CC(C)C)C(=O)N[C@H]1CSSC[C@@H](C(=O)O)NC(=O)[C@H](CC(N)=O)NC(=O)[C@H](CCCCN)NC(=O)[C@H](CC(C)C)NC(=O)[C@H](C(C)C)NC(=O)[C@H](C)NC1=O)C(C)C)[C@@H](C)CC` [FRSGILKLASKIGSVLCAVLKNC], the MIC in assay [1] was found to be 20.7 µM (≈ 50 µg/mL); in assay [2], 10.3 µM (≈ 25 µg/mL); in assay [3], 20.7 µM (≈ 50 µg/mL); in [4], 10.3 µM (≈ 25 µg/mL).
As for `CC[C@H](C)[C@H](NC(=O)CNC(=O)[C@H](CCC(N)=O)NC(=O)[C@H](Cc1ccccc1)NC(=O)[C@@H](NC(=O)[C@H](CCCCN)NC(=O)[C@H](CCCCN)NC(=O)[C@H](CC(C)C)NC(=O)[C@H](C)NC(=O)[C@H](CC(N)=O)NC(=O)[C@H](CC(C)C)NC(=O)CN)C(C)C)C(=O)N[C@@H](Cc1cnc[nH]1)C(=O)N[C@@H](CCC(=O)O)C(=O)N[C@@H](C)C(=O)N[C@H](C(=O)N[C@@H](CCCCN)C(=O)N[C@@H](CC(C)C)C(=O)N[C@H](C(=O)N[C@@H](CC(N)=O)C(=O)N[C@@H](CC(N)=O)C(=O)N[C@@H](Cc1cnc[nH]1)C(=O)N[C@H](C(=O)N[C@@H](CCCCN)C(=O)O)C(C)C)[C@@H](C)CC)[C@@H](C)CC` [GLNALKKVFQGIHEAIKLINNHVK], the MIC in assay [5] is at least 80 µM; in [3] it was 20 µM (≈ 53.7 µg/mL).
As for `CC(C)C[C@H](NC(=O)[C@H](CCCN=C(N)N)NC(=O)[C@H](CCCN=C(N)N)NC(=O)[C@H](Cc1ccccc1)NC(=O)[C@H](CCCN=C(N)N)NC(=O)CN)C(=O)N[C@@H](CCCN=C(N)N)C(=O)N[C@@H](CCCCN)C(=O)N[C@@H](CCCCN)C(=O)N[C@H](C(=O)N[C@@H](CCCN=C(N)N)C(=O)N[C@@H](CCCCN)C(N)=O)[C@@H](C)O` [GRFRRLRKKTRK], the MIC in assay [6] is at least 128 µM; in assay [7], at least 128 µM; in assay [8] it was over 128 µM; in assay [3], 128 µM (≈ 205 µg/mL); in [9] it was over 128 µM; in [10] it was over 128 µM.
`CC[C@H](C)[C@H](N)C(=O)N[C@@H](CC(C)C)C(=O)N1CCC[C@H]1C(=O)N[C@@H](Cc1c[nH]c2ccccc12)C(=O)N[C@@H](CCCCN)C(=O)N[C@@H](CCCCN)C(=O)N1CCC[C@H]1C(=O)N[C@@H](CCCCN)C(=O)N[C@@H](CCCCN)C(=O)N1CCC[C@H]1C(=O)N[C@@H](Cc1c[nH]c2ccccc12)C(=O)N[C@@H](CCCN=C(N)N)C(=O)N[C@@H](CCCN=C(N)N)C(N)=O` [ILPWKKPKKPWRR]: the minimal inhibitory concentration (MIC) came to 5.77 µM (≈ 9.99 µg/mL) in assay [11]; 5.77 µM (≈ 9.99 µg/mL) in assay [12]; 5.77 µM (≈ 9.99 µg/mL) in assay [13]; 2.88 µM (≈ 5 µg/mL) in [14]; 11.5 µM (≈ 20 µg/mL) in assay [15]; 2.88 µM (≈ 5 µg/mL) in [16].
With `C[C@@H](O)[C@H](NC(=O)[C@H](CCCCN)NC(=O)[C@H](Cc1c[nH]c2ccccc12)NC(=O)[C@H](Cc1c[nH]c2ccccc12)NC(=O)[C@@H](NC(=O)[C@H](CCCCN)NC(=O)[C@@H](N)CCCCN)[C@@H](C)O)C(=O)N[C@@H](Cc1c[nH]c2ccccc12)C(=O)N[C@@H](Cc1c[nH]c2ccccc12)C(=O)N[C@H](C(=O)N[C@@H](CCCCN)C(=O)N[C@@H](Cc1c[nH]c2ccccc12)C(=O)N[C@@H](CCCCN)C(=O)N[C@@H](CCCCN)C(=O)O)[C@@H](C)O` [KKTWWKTWWTKWKK], the MIC came out at 2 µM (≈ 4.04 µg/mL) in assay [11]; 2 µM (≈ 4.04 µg/mL) in assay [12]; 2 µM (≈ 4.04 µg/mL) in assay [13]; 2 µM (≈ 4.04 µg/mL) in assay [14]; 4 µM (≈ 8.09 µg/mL) in assay [15]; 2 µM (≈ 4.04 µg/mL) in [16].
Turning to `CC[C@H](C)[C@H](NC(=O)[C@H](CCCCN)NC(=O)[C@H](CCCCN)NC(=O)[C@H](CC(C)C)NC(=O)[C@H](CCCN=C(N)N)NC(=O)[C@H](CCCCN)NC(=O)[C@H](CCCN=C(N)N)NC(=O)[C@@H](NC(=O)[C@H](Cc1c[nH]c2ccccc12)NC(=O)[C@H](Cc1c[nH]c2ccccc12)NC(=O)[C@H](CCCN=C(N)N)NC(=O)[C@H](CC(C)C)NC(=O)[C@H](CCCN=C(N)N)NC(=O)[C@H](CCCN=C(N)N)NC(=O)[C@H](Cc1ccccc1)NC(=O)[C@@H](N)CCCN=C(N)N)[C@@H](C)O)C(N)=O` [RFRRLRWWTRKRLKKI], the MIC in assay [6] came to 8 µM (≈ 18.4 µg/mL); in assay [7] it was 8 µM (≈ 18.4 µg/mL); in [9] it was 4 µM (≈ 9.2 µg/mL); in [17] it was 8 µM (≈ 18.4 µg/mL).
Turning to `CC(C)C[C@H](NC(=O)[C@H](CCCN=C(N)N)NC(=O)[C@H](Cc1c[nH]c2ccccc12)NC(=O)[C@H](CCCN=C(N)N)NC(=O)[C@@H](NC(=O)[C@H](Cc1c[nH]c2ccccc12)NC(=O)[C@H](Cc1c[nH]c2ccccc12)NC(=O)[C@H](CCCN=C(N)N)NC(=O)[C@H](CC(C)C)NC(=O)[C@H](CCCN=C(N)N)NC(=O)[C@@H](N)CCCN=C(N)N)[C@@H](C)O)C(=O)N[C@@H](CCCCN)C(N)=O` [RRLRWWTRWRLK], the minimum inhibitory concentration (MIC) in assay [6] was determined as 8 µM (≈ 14.5 µg/mL); in assay [7], 4 µM (≈ 7.25 µg/mL); in assay [8] it was 8 µM (≈ 14.5 µg/mL); in assay [3] it was 4 µM (≈ 7.25 µg/mL); in [9] it was 8 µM (≈ 14.5 µg/mL); in [10], 4 µM (≈ 7.25 µg/mL).
For the compound `NC(=O)[C@H](CCCN=C(N)N)NC(=O)[C@H](Cc1c[nH]c2ccccc12)NC(=O)[C@@H](N)CCCN=C(N)N` [RWR], the MIC in assay [12], in assay [14], in assay [15] and in [16] was at least 124 µM throughout.
`CC[C@H](C)[C@H](NC(=O)[C@H](CCSC)NC(=O)[C@@H](N)CO)C(=O)N[C@@H](CO)C(=O)N[C@H](C(=O)N[C@@H](CC(C)C)C(=O)N[C@@H](CCCCN)C(=O)N[C@@H](CC(N)=O)C(=O)N[C@@H](CC(C)C)C(=O)NCC(=O)N[C@@H](CCCCN)C(=O)N[C@H](C(=O)NCC(=O)N[C@@H](CC(C)C)C(=O)NCC(=O)N[C@@H](Cc1ccccc1)C(=O)N[C@H](C(=O)N[C@@H](C)C(=O)N[C@H]1CSSC[C@@H](C(=O)O)NC(=O)[C@H](CCC(N)=O)NC(=O)[C@H](CCCCN)NC(=O)[C@H](CC(N)=O)NC(=O)[C@H](C(C)C)NC(=O)[C@H](CCCCN)NC1=O)C(C)C)C(C)C)C(C)C` [SMISVLKNLGKVGLGFVACKVNKQC]: the MIC in [18] was at least 110 µM; in assay [5] it was at least 60 µM; in [3] it was 3.5 µM (≈ 9.22 µg/mL).
For the compound `CC(C)[C@H](N)C(=O)N[C@@H](CCCCN)C(=O)N[C@@H](CCCN=C(N)N)C(=O)N[C@@H](Cc1c[nH]c2ccccc12)C(=O)N[C@@H](CCCCN)C(=O)N[C@@H](CCCCN)C(=O)N[C@@H](Cc1ccccc1)C(=O)N[C@@H](Cc1c[nH]c2ccccc12)C(=O)N[C@@H](CCCN=C(N)N)C(=O)N[C@@H](CCCCN)C(=O)N[C@@H](Cc1c[nH]c2ccccc12)C(=O)N[C@@H](CCCCN)C(=O)N[C@@H](CCCCN)C(=O)N[C@@H](Cc1c[nH]c2ccccc12)C(=O)N[C@@H](Cc1c[nH]c2ccccc12)C(N)=O` [VKRWKKFWRKWKKWW], the MIC in assay [1] amounted to 2.06 µM (≈ 4.69 µg/mL); in assay [2] it was 1.03 µM (≈ 2.34 µg/mL); in [3] it was 8.24 µM (≈ 18.7 µg/mL); in assay [4], 2.06 µM (≈ 4.69 µg/mL).

By MIC is commonly meant the lowest concentration that inhibits growth of the organism. Low values mean a more susceptible organism, high ones a less susceptible organism.
